# In ChEMBL document CHEMBL3046062, “Anti-HIV, antimycobacterial and antimicrobial studies of newly synthesized 1,2,4-triazole clubbed benzothiazoles” (Med Chem Res, 2013):
# What was measured:
# [1] = system: Staphylococcus aureus; assay: Antibacterial activity against Staphylococcus aureus MTCC 96 after overnight incubation by broth microdilution method; format: functional
# [2] = system: Escherichia coli; assay: Antibacterial activity against Escherichia coli MTCC 442 after overnight incubation by broth microdilution method; format: functional
# [3] = system: Streptococcus pyogenes; assay: Antibacterial activity against Streptococcus pyogenes MTCC 443 after overnight incubation by broth microdilution method; format: functional
# [4] = system: Pseudomonas aeruginosa; assay: Antibacterial activity against Pseudomonas aeruginosa MTCC 2488 after overnight incubation by broth microdilution method; format: functional
# [5] = system: Human immunodeficiency virus 2; assay: Antiviral activity against Human immunodeficiency virus type 2 (ISOLATE ROD) infected MT4 cells assessed as inhibition of virus-induced cytopathogenicity after 5 days by MTT assay; format: functional, organism-based; details: Human immunodeficiency virus 2, ISOLATE ROD, MT4, 120 h
# [6] = system: Human immunodeficiency virus 1; assay: Antiviral activity against Human immunodeficiency virus 1 IIIB infected MT4 cells assessed as inhibition of virus-induced cytopathogenicity after 5 days by MTT assay; format: functional, organism-based; details: MT4, 120 h
# [7] = Cytotoxicity against Homo sapiens (human) MT4 cells after 5 days by MTT assay; format: cell-based
# [8] = Selectivity index, ratio of CC50 for human MT4 cells to IC50 for HIV1 3B; format: functional
# [9] = Selectivity index, ratio of CC50 for human MT4 cells to IC50 for HIV2 ROD; format: functional
# [10] = system: Mycobacterium tuberculosis; assay: Growth inhibition of Mycobacterium tuberculosis H37Rv at MIC after 28 days by Lowenstein-Jensen agar method; format: functional
# [11] = system: Mycobacterium tuberculosis; assay: Antitubercular activity against Mycobacterium tuberculosis H37Rv after 28 days by Lowenstein-Jensen agar method; format: functional; details: 672 h
Compound,MIC99 [1] [mg/L],MIC99 [2] [mg/L],MIC99 [3] [mg/L],MIC99 [4] [mg/L],IC50 [5] [mg/L],IC50 [6] [mg/L],CC50 at 120 h [7] [mg/L],Ratio CC50/IC50 [8],Ratio CC50/IC50 [9],growth inhibition (GI) [10] [%],MIC [11] [mg/L]
CC1(C)S[C@@H]2[C@H](NC(=O)[C@H](N)c3ccccc3)C(=O)N2[C@H]1C(=O)O [AMPICILLIN],250,100,100,100,–,–,–,–,–,–,–
NNc1nc2c(Cl)cccc2s1,–,–,–,–,> 117,> 117,117,1,1,–,–
Cc1ccc2nc(NN)sc2c1,–,–,–,–,> 4.52,> 4.52,4.52,<1,<1,–,–
O=[N+]([O-])c1ccc(-c2nnc(-c3cccnc3)n2Nc2nc3cc(Cl)c(Cl)cc3s2)cc1,–,–,–,–,> 68.6,> 68.6,68.7,<1,<1,–,–
COc1ccc2nc(NN)sc2c1,–,–,–,–,> 14.8,> 14.8,14.8,<1,<1,–,–
Cc1ccc2nc(Nn3c(-c4ccc([N+](=O)[O-])cc4)nnc3-c3cccnc3)sc2c1,–,–,–,–,> 64.4,> 64.4,64.4,<1,<1,–,–
Cc1ccnc2c1NC(=O)c1cccnc1N2C1CC1 [NEVIRAPINE],–,–,–,–,–,> 0.05,> 4,>80,–,–,–
Cc1cccc2sc(NN)nc12,–,–,–,–,> 9.8,> 9.8,9.8,<1,<1,–,–
NNc1nc2ccc(Cl)cc2s1,–,–,–,–,> 2.48,> 2.48,2.48,<1,<1,–,–
Clc1ccc(COC(Cn2ccnc2)c2ccc(Cl)cc2Cl)cc1 (stereo not given) [ECONAZOLE],–,–,–,–,–,–,–,–,–,99,12.5
NNc1nc2c([N+](=O)[O-])cccc2s1,–,–,–,–,> 14.5,> 14.5,14.5,<1,<1,–,–
NNc1nc2ccc([N+](=O)[O-])cc2s1,–,–,–,–,> 12.8,> 12.8,12.8,<1,<1,–,–
O=[N+]([O-])c1ccc(-c2nnc(-c3cccnc3)n2Nc2nc3ccc([N+](=O)[O-])cc3s2)cc1,–,–,–,–,> 50.8,> 50.8,50.8,<1,<1,–,–
O=[N+]([O-])c1ccc(-c2nnc(-c3cccnc3)n2Nc2nc3ccc(Br)cc3s2)cc1,–,–,–,–,> 13.2,> 13.2,13.2,<1,<1,–,–
CO[C@H]1/C=C/O[C@@]2(C)Oc3c(C)c(O)c4c(O)c(c(/C=N/N5CCN(C)CC5)c(O)c4c3C2=O)NC(=O)/C(C)=C\C=C\[C@H](C)[C@H](O)[C@@H](C)[C@@H](O)[C@@H](C)[C@H](OC(C)=O)[C@@H]1C [RIFAMPIN],–,–,–,–,–,–,–,–,–,99,40
Clc1ccccc1C(c1ccccc1)(c1ccccc1)n1ccnc1 [CLOTRIMAZOLE],–,–,–,–,–,–,–,–,–,96,20.4
O=[N+]([O-])c1ccc(-c2nnc(-c3cccnc3)n2Nc2nc3c([N+](=O)[O-])cccc3s2)cc1,–,–,–,–,> 13.8,> 13.8,13.8,<1,<1,–,–
NNC(=O)c1ccncc1 [ISONIAZID],–,–,–,–,–,–,–,–,–,99,0.2
